{"source": "patent US8258295B2", "about": "“Triazine derivatives, compositions containing such derivatives, and methods of treatment of cancer and autoimmune diseases using such derivatives” (Prometic Biosciences Inc., priority 2007, dated 2012)", "key": {"[1]": {"test_system": "NHDF (normal human dermal fibroblast)", "assay": "MTT cytotoxicity on NHDF", "assay_type": "cell-based", "protocol": "This assay was performed to determine the effect of compounds of the present invention on cell cytotoxicity. Cells were incubated in presence or absence of compounds in their respective conditioned media. After 24 hr or 72 hr incubation, 50 μl of 3-(4,5-dimethyl-2-thiazyl)-2,5-diphenyl-2H-tetrazolium bromide (MTT; 2 mg/ml) was added and further incubated for 4 hr. The supernatant was discarded and 100 μl of dimethylsulfoxide (DMSO) was added. Absorbance was read at 570 nm with a TecanSunrise ELISA plate reader. The control group consisted of cells without compounds and is referred to as 100% of viable cells. IC50 was determined using Prism software.\nAll compounds have weak effect on cell cytotoxicity. The predictive utility of cell based cytotoxicity assays to assess the potential in vivo anticancer activity of compounds with selected cancer cell lines is well established in the art and the use of whole cells, instead of isolated protein receptors or enzymes, provides a more reliable determination of activity. See, for example, Paull et al. (J. Nat'l Cancer Inst. 81:1088-1092, 1989); Monks et al. (J. Nat'l Cancer Inst. 83:757-766, 1991); Bandes et al. (J. Nat'l Cancer Inst. 86:770-775, 1994); and Kamate et al. (Int'l J. Cancer 100:571-579, 2002)."}, "[2]": {"biological_target": "TNFα (Homo sapiens, UniProt P01375)", "sequence (P01375 77-233 limits assumed, species assumed)": "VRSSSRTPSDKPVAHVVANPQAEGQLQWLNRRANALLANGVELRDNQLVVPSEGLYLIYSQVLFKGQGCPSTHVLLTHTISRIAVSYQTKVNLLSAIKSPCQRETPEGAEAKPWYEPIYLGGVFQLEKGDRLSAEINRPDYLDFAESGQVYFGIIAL", "assay": "TNFα-induced apoptosis in WEHI-13VAR cell line", "assay_type": "cell-based", "settings": "for inhibition at 10 µM: 1 × 10^−5 M; for inhibition at 20 µM: 2 × 10^−5 M; for inhibition at 5 µM: 5 × 10^−6 M; for inhibition at 40 µM: 4 × 10^−5 M", "protocol": "Effect of compounds on TNFα-induced apoptosis was measured by a standard biological assay using WEHI-13VAR cells. These cells undergo apoptosis when they are incubated in the presence of TNFα and actinomycin D. 2×10^4 WEHI-13VAR cells were incubated in RPMI supplemented with 1% sodium pyruvate and 10% FBS, overnight at 37° C. for cell adherence. The cells were then cultured in the presence of 1 μg/ml of actimomycin D ([…]) and 0.04 nM TNFα with or without compounds at 37° C. After 16 hr to 24 hr, 50 μl of a solution of 2 mg/ml of MIT was added to each well and the plate was then incubated for 4 hr at 37° C. Only viable cells metabolize MTT to form formazan salt, which is detectable by the measurement of absorbance at 570 nm. After the incubation, the plate was inverted to remove medium and dead cells. 150 μDMSO was added to each well to stop the reaction and solubilize the formazan salt. Optical density was read on a Bio-Tek EL 800 UV microplate reader. A decrease in the optical density is direct evidence of cell apoptosis induced by TNFα. Compounds were also compared to the activity of an anti-TNFα neutralizing antibody."}, "[3]": {"test_system": "oxazolone-induced delayed-type hypersensitivity (DTH)", "assay": "Oxazolone-induced delayed-type hypersensitivity (DTH) in mice", "assay_type": "in vivo", "protocol": "Compounds were tested for their ability to treat oxazolone-induced delayed-type hypersensitivity (DTH) in mice. […] On day 0, day 1, and day 2, mice were treated by intravenous (IV) or oral (PO) administrations of the vehicle (control) or methotrexate (MTX; positive control/IV) or hydrocortisone (positive control/PO) or the compound at concentration lower than or equal to 50 mg/kg or as specified. Mice were challenged with an application of 50 μl of oxazolone on the surface of the right ear (first challenge, day 3; second challenge, day 10). Ear thickness was measured on day 4 to day 7, and on day 11 to 14. Redness and crust formation was also observed. Mice were sacrificed on day 14. TDTH (CD4) cells play an important role in regulating the intensity of the DTH response. Compounds may exert an inhibitory influence on the DTH response through its inhibition of T-cell activation and DNA, RNA, and/or protein synthesis."}, "[4]": {"test_system": "peripheral blood mononuclear leukocytes (PBML)", "assay": "PBML protein synthesis ([3H]-leucine)", "assay_type": "cell-based", "settings": "Homo sapiens, Leukocyte, 48 hr", "text": "(§1) PBML were obtained from the peripheral blood of healthy volunteers. Blood was submitted to gradient centrifugation with Lympholyte-Poly media (Cedarlane, Hornby, Canada). The layer containing the mononuclear leukocytes was collected and the cells washed three times in PBS. Cells were then suspended in RPMI (Gibco, Burlington, Canada) supplemented with 10% FBS (Hyclone, Logan USA). Viability was greater than 99% as determined by trypan blue exclusion.\n(§2) PBML were resuspended at 2×10^6 cells/ml. 100 μl of PBML (2×10^5 cells) were incubated in a 96-well microtiter plate for 48 hr in the presence or absence of compound. Cells were quiescent or stimulated with concanavalin A (con A; T-cells) or pokeweed mitogen (PWM; B-cells). After incubation, cells were treated with MTT (cytotoxicity) or pulsed with 1 μCi of [^3H]-thymidine (DNA synthesis), [^3H]-uridine (RNA synthesis), or [^3H]-leucine (protein synthesis) for 6 hr. Plates were harvested on a Tomteck and counted on a Microbeta β-counter."}, "[5]": {"assay": "PBML cytotoxicity (MTT)", "assay_type": "cell-based, human", "settings": "human, resting PBML", "text": "as §1, §2"}, "[6]": {"test_system": "peripheral blood mononuclear leukocytes (PBML)", "assay": "PBML cytotoxicity (MTT)", "assay_type": "cell-based, human", "settings": "48 hr", "text": "as §1, §2"}, "[7]": {"test_system": "B16F10 melanoma", "assay": "Primary B16F10 melanoma tumor in mice", "assay_type": "in vivo", "settings": "C57BL/6 mice, IV on day 14, 16, 18; FIG. 2A/2B", "protocol": "Female 6-8 week old C57BL/6 mice were injected intradermally on day 0 with 50 μl of 3.75×10^4 viable B16F10 melanoma cells from ATCC (source of cell culture, Dr. I. J. Fidler). On day 14, tumors reached […] and animals were randomized for treatments. Animals were then injected IV with saline (negative control) or compound (5 mg/kg, 25 mg/kg, or 50 mg/kg) on day 14, day 16, and day 18 or 10 mg/kg doxorubicin (positive control) on day 14. Mice were sacrificed on day 29. Body weight and tumor volume were recorded. Serial tumor volume was obtained by bi-dimensional diameter measurements with calipers, using the formula 0.4 (a×b^2) where “a” was the major tumor diameter and “b” the minor perpendicular diameter. An antitumor effect can be quantitated by T/C, which is calculated as (Treated tumor volume/Control tumor volume)×100%."}, "[8]": {"test_system": "peripheral blood mononuclear leukocytes (PBML)", "assay": "PBML RNA synthesis ([3H]-uridine)", "assay_type": "cell-based", "settings": "Homo sapiens, Leukocyte, 48 hr", "text": "as §1, §2"}, "[9]": {"settings": "24 hr culture, read-out: IC50 of 24-hour culture NHDF"}, "[10]": {"settings": "72 hr culture, read-out: IC50 of 72-hour culture NHDF"}, "[11]": {"settings": "PWM stimulated PBML, read-out: Protein Synthesis PWM"}, "[12]": {"settings": "con A stimulated PBML, read-out: Protein Synthesis Con A"}, "[13]": {"settings": "resting PBML, read-out: Protein Synthesis Resting"}, "[14]": {"settings": "PWM stimulated PBML, read-out: Cytotoxicity PWM"}, "[15]": {"settings": "con A stimulated PBML, read-out: Cytotoxicity Con A"}, "[16]": {"settings": "PWM stimulated PBML, read-out: RNA Synthesis PWM"}, "[17]": {"settings": "resting PBML, read-out: RNA Synthesis Resting"}}, "note": "Read-outs that look alike come from different tables or passages of the source."}
{"smiles": "NCCCCCNc1nc(NCCc2ccc(O)cc2)nc(Nc2cccc(F)c2)n1", "note": "[Compound I]", "values": [{"measurement": "IC50", "setting": "[1]; [9]", "result": 56.8, "unit": "µM"}, {"measurement": "IC50", "setting": "[1]; [10]", "result": 16.3, "unit": "µM"}, {"measurement": "inhibition at 10 µM", "setting": "[2]", "result": 33.1, "unit": "%"}, {"measurement": "inhibition at 20 µM", "setting": "[2]", "result": 58.9, "unit": "%"}, {"measurement": "inhibition at 5 µM", "setting": "[2]", "result": 17.9, "unit": "%"}, {"measurement": "inflammation (ear thickness) after DTH", "setting": "[3]; IV 25 mg/kg, first challenge of oxazolone", "result": "significant reduction of the inflammation"}, {"measurement": "inflammation (ear thickness) after DTH", "setting": "[3]; IV 25 mg/kg, second challenge of oxazolone", "result": "significant reduction of the inflammation"}, {"measurement": "IC50", "setting": "[4]; [11]", "result": 9.9, "unit": "µM"}, {"measurement": "IC50", "setting": "[4]; [12]", "result": 4.4, "unit": "µM"}, {"measurement": "IC50", "setting": "[4]; [13]", "result": "> 10", "unit": "µM"}, {"measurement": "IC50 at 48 h", "setting": "[5]", "result": "> 10", "unit": "µM"}, {"measurement": "IC50", "setting": "[6]; [14]", "result": "> 10", "unit": "µM"}, {"measurement": "IC50", "setting": "[6]; [15]", "result": "> 10", "unit": "µM"}, {"measurement": "T/C (treated/control tumor volume)", "setting": "[7]", "result": "around 80%"}, {"measurement": "IC50", "setting": "[8]; [16]", "result": 2.2, "unit": "µM"}, {"measurement": "IC50", "setting": "[8]; [17]", "result": 6.8, "unit": "µM"}]}
{"smiles": "NCCCCCNc1nc(NCCc2ccc(O)cc2)nc(Nc2ccc(F)cc2)n1", "note": "[Compound V]", "values": [{"measurement": "IC50", "setting": "[1]; [9]", "result": 78.6, "unit": "µM"}, {"measurement": "IC50", "setting": "[1]; [10]", "result": 45.8, "unit": "µM"}, {"measurement": "inhibition at 10 µM", "setting": "[2]", "result": 22.2, "unit": "%"}, {"measurement": "inhibition at 20 µM", "setting": "[2]", "result": 51.9, "unit": "%"}, {"measurement": "inhibition at 40 µM", "setting": "[2]", "result": 75.9, "unit": "%"}, {"measurement": "inhibition at 5 µM", "setting": "[2]", "result": 8.2, "unit": "%"}, {"measurement": "inflammation (ear thickness) after DTH", "setting": "[3]; oral 50 mg/kg, FIG. 15", "result": "significant reduction of the inflammation"}, {"measurement": "IC50", "setting": "[4]; [11]", "result": "> 10", "unit": "µM"}, {"measurement": "IC50", "setting": "[4]; [12]", "result": "> 10", "unit": "µM"}, {"measurement": "IC50", "setting": "[4]; [13]", "result": "> 10", "unit": "µM"}, {"measurement": "IC50 at 48 h", "setting": "[5]", "result": "> 10", "unit": "µM"}, {"measurement": "IC50", "setting": "[6]; [14]", "result": "> 10", "unit": "µM"}, {"measurement": "IC50", "setting": "[6]; [15]", "result": "> 10", "unit": "µM"}, {"measurement": "T/C (treated/control tumor volume)", "setting": "[7]", "result": "< 40", "unit": "%"}, {"measurement": "IC50", "setting": "[8]; [16]", "result": 4.5, "unit": "µM"}, {"measurement": "IC50", "setting": "[8]; con A stimulated PBML, read-out: RNA Synthesis Con A", "result": 6, "unit": "µM"}, {"measurement": "IC50", "setting": "[8]; [17]", "result": 7.4, "unit": "µM"}]}
{"smiles": "NCCCCCNc1nc(NCCc2ccc(S(N)(=O)=O)cc2)nc(Nc2cccc(F)c2)n1", "note": "[Compound II]", "values": [{"measurement": "IC50", "setting": "[1]; [9]", "result": "> 100", "unit": "µM"}, {"measurement": "IC50", "setting": "[1]; [10]", "result": 28.6, "unit": "µM"}, {"measurement": "inhibition at 10 µM", "setting": "[2]", "result": 64.2, "unit": "%"}, {"measurement": "inhibition at 20 µM", "setting": "[2]", "result": 83.8, "unit": "%"}, {"measurement": "inhibition at 40 µM", "setting": "[2]", "result": 78.9, "unit": "%"}, {"measurement": "inhibition at 5 µM", "setting": "[2]", "result": 45.2, "unit": "%"}, {"measurement": "inflammation (ear thickness) after DTH", "setting": "[3]; IV 5 mg/kg, first challenge of oxazolone", "result": "significant reduction of the inflammation"}, {"measurement": "inflammation (ear thickness) after DTH", "setting": "[3]; IV 5 mg/kg, second challenge of oxazolone", "result": "significant reduction of the inflammation"}, {"measurement": "IC50", "setting": "[4]; [11]", "result": 5.7, "unit": "µM"}, {"measurement": "IC50", "setting": "[4]; [12]", "result": 6.4, "unit": "µM"}, {"measurement": "IC50", "setting": "[4]; [13]", "result": "> 10", "unit": "µM"}, {"measurement": "IC50 at 48 h", "setting": "[5]", "result": "> 10", "unit": "µM"}, {"measurement": "IC50", "setting": "[6]; [14]", "result": "> 10", "unit": "µM"}, {"measurement": "IC50", "setting": "[6]; [15]", "result": "> 10", "unit": "µM"}, {"measurement": "T/C (treated/control tumor volume)", "setting": "[7]", "result": "around 80%"}, {"measurement": "IC50", "setting": "[8]; [16]", "result": 1.1, "unit": "µM"}, {"measurement": "IC50", "setting": "[8]; [17]", "result": 5.8, "unit": "µM"}]}
